According to patent US8952024B2, “Herbicidal pyrimidone derivatives” (E I du Pont de Nemours and Company, priority 2009, dated 2015):

Key:
Type in all cases: in vivo
[1] = tested on: umbrella sedge (Cyperus difformis); test: Test B flooded paddy test; conditions: for Plant response rating, Flood, Sedge, Umbrella: 250 g ai/ha, flooded paddy test, visual rating on 0 to 100 scale (0 no effect, 100 complete control) after 13 to 15 days; for Plant response rating, Sedge, Umbrella: Flood (flooded paddy test), 13 to 15 days; for Sedge, Umbrella plant response rating: Flood, 31 g ai/ha, scale 0 to 100 (0 no effect, 100 complete control)
Method in brief: (§1)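 Post-flood paddy application: compounds are introduced into water 3 cm deep over the soil, reaching plants at the 2-leaf stage. The water level is maintained, and after 13–15 days under greenhouse conditions, response is judged by eye relative to controls, where 100 means complete control.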

[2] = tested on: ducksalad (Heteranthera limosa); test: Test B flooded paddy test; conditions: for Plant response rating, Flood, Ducksalad: 250 g ai/ha, flooded paddy test, visual rating on 0 to 100 scale (0 no effect, 100 complete control) after 13 to 15 days; for Plant response rating, Ducksalad: Flood (flooded paddy test), 13 to 15 days; for Ducksalad plant response rating: Flood, 31 g ai/ha, scale 0 to 100 (0 no effect, 100 complete control)
Method in brief: as §1

[3] = tested on: barnyardgrass (Echinochloa crus-galli); test: Test B flooded paddy test; conditions: for Plant response rating, Flood, Barnyardgrass: 250 g ai/ha, flooded paddy test, visual rating on 0 to 100 scale (0 no effect, 100 complete control) after 13 to 15 days; for Plant response rating, Barnyardgrass: Flood (flooded paddy test), 13 to 15 days; for Barnyardgrass plant response rating: Flood, 31 g ai/ha, scale 0 to 100 (0 no effect, 100 complete control)
Method in brief: as §1

rice (Oryza sativa) = test: Test B flooded paddy test; conditions: for Plant response rating, Flood, Rice: 250 g ai/ha, flooded paddy test, visual rating on 0 to 100 scale (0 no effect, 100 complete control) after 13 to 15 days; for Plant response rating, Rice: Flood (flooded paddy test), 13 to 15 days; for Rice plant response rating: Flood, 31 g ai/ha, scale 0 to 100 (0 no effect, 100 complete control)
Method in brief: as §1

[4] = tested on: pigweed (Amaranthus retroflexus); test: Test A pre-/postemergence plant response; conditions: for Pigweed plant response rating: visual injury, 0 to 100 scale (0 no effect, 100 complete control), approx. ten days
Method in brief: (§2)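 Visual injury rating on a 0–100 scale (0 = no effect, 100 = complete control) was made versus untreated controls after about ten days in the greenhouse. Compounds, formulated in a non-phytotoxic solvent mix containing surfactant, were sprayed preemergence onto loam/sand soil and postemergence onto one- to two-leaf plants.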

[5] = tested on: giant foxtail (Setaria faberii); test: Test A pre-/postemergence plant response; conditions: for Foxtail, Giant plant response rating: visual injury, 0 to 100 scale (0 no effect, 100 complete control), approx. ten days
Method in brief: as §2

corn (Zea mays) = test: Test A pre-/postemergence plant response; conditions: for Corn plant response rating: visual injury, 0 to 100 scale (0 no effect, 100 complete control), approx. ten days
Method in brief: as §2

[6] = tested on: wheat (Triticum aestivum); test: Test A pre-/postemergence plant response; conditions: for Wheat plant response rating: visual injury, 0 to 100 scale (0 no effect, 100 complete control), approx. ten days
Method in brief: as §2

[7] = tested on: large crabgrass (Digitaria sanguinalis); test: Test A pre-/postemergence plant response; conditions: for Crabgrass, Large plant response rating: visual injury, 0 to 100 scale (0 no effect, 100 complete control), approx. ten days
Method in brief: as §2

[8] = tested on: barnyardgrass (Echinochloa crus-galli); test: Test A pre-/postemergence plant response; conditions: for Barnyardgrass plant response rating: visual injury, 0 to 100 scale (0 no effect, 100 complete control), approx. ten days
Method in brief: as §2

[9] = tested on: morningglory (Ipomoea spp.); test: Test A pre-/postemergence plant response; conditions: for Morningglory plant response rating: visual injury, 0 to 100 scale (0 no effect, 100 complete control), approx. ten days
Method in brief: as §2

[10] = tested on: velvetleaf (Abutilon theophrasti); test: Test A pre-/postemergence plant response; conditions: for Velvetleaf plant response rating: visual injury, 0 to 100 scale (0 no effect, 100 complete control), approx. ten days
Method in brief: as §2

[11] = tested on: winter barley (Hordeum vulgare); test: Test B postemergence plant response; conditions: Postemergence
Method in brief: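 Visual ratings from 0 (no effect) to 100 (complete control), made against controls 13–15 days after treatment, kept in a greenhouse. Compounds were applied postemergence to potted plants at the 1- to 4-leaf stage (2–18 cm).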

[12] = 62 g ai/ha, scale of 0 to 100 where 0 is no effect and 100 is complete control
[13] = 125 g ai/ha, scale 0 to 100, 0 is no effect, 100 is complete control
[14] = Postemergence, 125 g ai/ha, 0 to 100 scale where 0 is no effect and 100 is complete control
[15] = Preemergence, 125 g ai/ha, 0 to 100 scale, 0 = no effect, 100 = complete control
[16] = Preemergence, 500 g ai/ha, 0 to 100 scale, 0 = no effect, 100 = complete control
[17] = 31 g ai/ha, 0 to 100 scale (0 no effect, 100 complete control)
[18] = 62 g ai/ha, scale 0 to 100 (0 no effect, 100 complete control)
[19] = 125 g ai/ha, scale 0 to 100 (0 no effect, 100 complete control)
[20] = 250 g ai/ha, scale 0 to 100 (0 no effect, 100 complete control), 13 to 15 days

COc1ccc(-n2c(-c3ccccc3)ncc(C(=O)C3=C(O)CCCC3=O)c2=O)cc1OC [Compound 218]
Plant response rating, Flood, Sedge, Umbrella [1]: 85
Plant response rating, Sedge, Umbrella [1, 12]: 80
Plant response rating, Sedge, Umbrella [1, 13]: 85
Sedge, Umbrella plant response rating [1]: 75
Plant response rating, Flood, Ducksalad [2]: 95
Plant response rating, Ducksalad [2, 12]: 80
Plant response rating, Ducksalad [2, 13]: 85
Ducksalad plant response rating [2]: 75
Plant response rating, Flood, Barnyardgrass [3]: 40
Plant response rating, Barnyardgrass [3, 12]: 0
Plant response rating, Barnyardgrass [3, 13]: 30
Barnyardgrass plant response rating [3]: 0
Plant response rating, Flood, Rice (rice (Oryza sativa)): 15
Plant response rating, Rice (rice (Oryza sativa); [12]): 0
Plant response rating, Rice (rice (Oryza sativa); [13]): 10
Rice plant response rating (rice (Oryza sativa)): 0
Plant response rating, Pigweed [4, 14]: 100
Pigweed plant response rating ([4]; Postemergence, 500 g ai/ha): 100
Plant response rating, Pigweed [4, 15]: 20
Plant response rating, Pigweed [4, 16]: 90
Plant response rating, Foxtail, Giant [5, 14]: 40
Foxtail, Giant plant response rating ([5]; Postemergence, 500 g ai/ha): 70
Plant response rating, Foxtail, Giant [5, 15]: 0
Plant response rating, Foxtail, Giant [5, 16]: 50
Plant response rating, Corn (corn (Zea mays); [14]): 0
Corn plant response rating (corn (Zea mays); Postemergence, 500 g ai/ha): 70
Plant response rating, Corn (corn (Zea mays); [15]): 0
Plant response rating, Corn (corn (Zea mays); [16]): 0
Plant response rating, Wheat [6, 14]: 0
Wheat plant response rating ([6]; Postemergence, 500 g ai/ha): 0
Plant response rating, Wheat [6, 15]: 0
Plant response rating, Wheat [6, 16]: 0
Plant response rating, Crabgrass, Large [7, 14]: 20
Crabgrass, Large plant response rating ([7]; Postemergence, 500 g ai/ha): 70
Plant response rating, Crabgrass, Large [7, 15]: 10
Plant response rating, Crabgrass, Large [7, 16]: 80
Plant response rating, Barnyardgrass [8, 14]: 80
Barnyardgrass plant response rating ([8]; Postemergence, 500 g ai/ha): 90
Plant response rating, Barnyardgrass [8, 15]: 20
Plant response rating, Barnyardgrass [8, 16]: 100
Plant response rating, Morningglory [9, 14]: 80
Morningglory plant response rating ([9]; Postemergence, 500 g ai/ha): 100
Plant response rating, Morningglory [9, 15]: 0
Plant response rating, Morningglory [9, 16]: 80
Plant response rating, Velvetleaf [10, 14]: 100
Velvetleaf plant response rating ([10]; Postemergence, 500 g ai/ha): 100
Plant response rating, Velvetleaf [10, 15]: 50
Plant response rating, Velvetleaf [10, 16]: 90
Plant response rating, Barley [11, 17]: 30
Plant response rating, Barley [11, 18]: 30
Plant response rating, Barley [11, 19]: 35
Plant response rating, Barley [11, 20]: 35

CCc1ccc(-n2c(-c3ccccc3)ncc(C(=O)C3=C(O)CCCC3=O)c2=O)cc1 [Compound 219]
Plant response rating, Flood, Sedge, Umbrella [1]: 85
Plant response rating, Sedge, Umbrella [1, 12]: 40
Plant response rating, Sedge, Umbrella [1, 13]: 60
Sedge, Umbrella plant response rating [1]: 20
Plant response rating, Flood, Ducksalad [2]: 90
Plant response rating, Ducksalad [2, 12]: 20
Plant response rating, Ducksalad [2, 13]: 65
Ducksalad plant response rating [2]: 0
Plant response rating, Flood, Barnyardgrass [3]: 60
Plant response rating, Barnyardgrass [3, 12]: 0
Plant response rating, Barnyardgrass [3, 13]: 20
Barnyardgrass plant response rating [3]: 0
Plant response rating, Flood, Rice (rice (Oryza sativa)): 75
Plant response rating, Rice (rice (Oryza sativa); [12]): 0
Plant response rating, Rice (rice (Oryza sativa); [13]): 70
Rice plant response rating (rice (Oryza sativa)): 0
Plant response rating, Pigweed [4, 14]: 100
Pigweed plant response rating ([4]; Postemergence, 500 g ai/ha): 100
Plant response rating, Pigweed [4, 15]: 90
Plant response rating, Pigweed [4, 16]: 100
Plant response rating, Foxtail, Giant [5, 14]: 50
Foxtail, Giant plant response rating ([5]; Postemergence, 500 g ai/ha): 90
Plant response rating, Foxtail, Giant [5, 15]: 10
Plant response rating, Foxtail, Giant [5, 16]: 80
Plant response rating, Corn (corn (Zea mays); [14]): 0
Corn plant response rating (corn (Zea mays); Postemergence, 500 g ai/ha): 30
Plant response rating, Corn (corn (Zea mays); [15]): 0
Plant response rating, Corn (corn (Zea mays); [16]): 0
Plant response rating, Wheat [6, 14]: 0
Wheat plant response rating ([6]; Postemergence, 500 g ai/ha): 30
Plant response rating, Wheat [6, 15]: 0
Plant response rating, Wheat [6, 16]: 20
Plant response rating, Crabgrass, Large [7, 14]: 80
Crabgrass, Large plant response rating ([7]; Postemergence, 500 g ai/ha): 100
Plant response rating, Crabgrass, Large [7, 15]: 50
Plant response rating, Crabgrass, Large [7, 16]: 100
Plant response rating, Barnyardgrass [8, 14]: 90
Barnyardgrass plant response rating ([8]; Postemergence, 500 g ai/ha): 90
Plant response rating, Barnyardgrass [8, 15]: 40
Plant response rating, Barnyardgrass [8, 16]: 100
Plant response rating, Morningglory [9, 14]: 100
Morningglory plant response rating ([9]; Postemergence, 500 g ai/ha): 100
Plant response rating, Morningglory [9, 15]: 20
Plant response rating, Morningglory [9, 16]: 80
Plant response rating, Velvetleaf [10, 14]: 100
Velvetleaf plant response rating ([10]; Postemergence, 500 g ai/ha): 100
Plant response rating, Velvetleaf [10, 15]: 30
Plant response rating, Velvetleaf [10, 16]: 90
Plant response rating, Barley [11, 17]: 0
Plant response rating, Barley [11, 18]: 25
Plant response rating, Barley [11, 19]: 30
Plant response rating, Barley [11, 20]: 30
